Patent US12285418B1, “2-(5-aminopyridin-2-yl)-N-benzylacetamides and use thereof in the treatment of acute myeloid leukemia” (University of Jeddah, priority 2024, dated 2025)

Columns and labels:
Type in all cases: cell-based
[1] = tested on: MV4-11 cells; experiment: Cell viability assay (CellTiter-Blue), MV4-11; conditions: Homo sapiens, 48 h incubation, mean±SD, read-out: IC50 against MV4-11 cells
Protocol: (§1) Cell viability was determined using the CellTiter®-Blue Cell Viability Assay kit (Promega, Madison, WI, USA) as previously described (Alkhatabi et al., 2022). Approximately 10^4 cells were counted, plated in a 96-well plate in the presence of test compounds ranging from 0.01 to 40 μM in quadruplicate, and incubated for 48 h at 37° C. in a humidified incubator. After the incubation period was completed, 20 μL of CellTiter®-Blue Cell Viability Assay reagent was added to each well and incubated for an additional 2 h for fluorescence development. Florescence was measured at Ex/Em 540/590 on a SpectraMax® i3 Multi-Mode microplate reader (Molecular Devices, LLC, San Jose, CA, USA) and plotted against the drug concentration to determine the IC50 of the test compounds. The IC50 was obtained by a nonlinear regression model using GraphPad Prism 10.1.1 (GraphPad Software, Inc., USA).
(§2) The half-maximal inhibitory concentration (IC50) of each drug was calculated using the GraphPad Prism software version 10.1.1. Flow cytometric data were analyzed using Diva software provided with the BD FACSCanto II Clinical Flow Cytometry System (BD Biosciences, USA). Student's paired t-test and Two-way ANOVA were used to compare data points. Data are presented as mean+SD, and at least three independent experiments were performed. […]

[2] = tested on: K562 cells; experiment: Cell viability assay (CellTiter-Blue), K562; conditions: Homo sapiens, 48 h incubation, mean±SD, read-out: IC50 against K562 cells
Protocol: as §1, §2

[3] = tested on: KG1a cells; experiment: Cell viability assay (CellTiter-Blue), KG1a; conditions: Homo sapiens, KG-1a, 48 h incubation, mean±SD, read-out: IC50 against KG1a cells
Protocol: as §1, §2

[4] = tested on: HL60 cells; experiment: Cell viability assay (CellTiter-Blue), HL60; conditions: Homo sapiens, HL-60, 48 h incubation, mean±SD, read-out: IC50 against HL60 cells
Protocol: as §1, §2

Measured: IC50

O=C(Cc1ccc(/N=C2\OC(=O)c3ccccc32)cn1)NCc1ccccc1 [Compound II, (Z)-N-benzyl-2-(5-((3-oxoisobenzofuran-1 (3H)-ylidene)amino)pyridin-2-yl) acetamide]
> 10 µM: all assays above

O=C(Cc1ccc(NC(=O)c2ccccc2O)cn1)NCc1ccccc1 [Compound III, N-(6-(2-(Benzylamino)-2-oxoethyl)pyridin-3-yl)-2-hydroxybenzamide]
> 10 µM: all assays above
